Measurements: article PMC6008586, “Analysis of transition state mimicry by tight binding aminothiazoline inhibitors provides insight into catalysis by human O-GlcNAcase” (Chemical Science, 2016)
Where two headings read alike, the source gives them in different places. Each block holds one compound with its values, some of them ahead of it.

Key:
human OGA (hOGA) = biological target: T1, human OGA (hOGA) (Homo sapiens, UniProt O60502); test: Inhibition of hOGA-catalysed 4-MUGlcNAc hydrolysis (Ki determination); type: biochemical
T1 construct: made in house
T1 sequence (O60502 1-916): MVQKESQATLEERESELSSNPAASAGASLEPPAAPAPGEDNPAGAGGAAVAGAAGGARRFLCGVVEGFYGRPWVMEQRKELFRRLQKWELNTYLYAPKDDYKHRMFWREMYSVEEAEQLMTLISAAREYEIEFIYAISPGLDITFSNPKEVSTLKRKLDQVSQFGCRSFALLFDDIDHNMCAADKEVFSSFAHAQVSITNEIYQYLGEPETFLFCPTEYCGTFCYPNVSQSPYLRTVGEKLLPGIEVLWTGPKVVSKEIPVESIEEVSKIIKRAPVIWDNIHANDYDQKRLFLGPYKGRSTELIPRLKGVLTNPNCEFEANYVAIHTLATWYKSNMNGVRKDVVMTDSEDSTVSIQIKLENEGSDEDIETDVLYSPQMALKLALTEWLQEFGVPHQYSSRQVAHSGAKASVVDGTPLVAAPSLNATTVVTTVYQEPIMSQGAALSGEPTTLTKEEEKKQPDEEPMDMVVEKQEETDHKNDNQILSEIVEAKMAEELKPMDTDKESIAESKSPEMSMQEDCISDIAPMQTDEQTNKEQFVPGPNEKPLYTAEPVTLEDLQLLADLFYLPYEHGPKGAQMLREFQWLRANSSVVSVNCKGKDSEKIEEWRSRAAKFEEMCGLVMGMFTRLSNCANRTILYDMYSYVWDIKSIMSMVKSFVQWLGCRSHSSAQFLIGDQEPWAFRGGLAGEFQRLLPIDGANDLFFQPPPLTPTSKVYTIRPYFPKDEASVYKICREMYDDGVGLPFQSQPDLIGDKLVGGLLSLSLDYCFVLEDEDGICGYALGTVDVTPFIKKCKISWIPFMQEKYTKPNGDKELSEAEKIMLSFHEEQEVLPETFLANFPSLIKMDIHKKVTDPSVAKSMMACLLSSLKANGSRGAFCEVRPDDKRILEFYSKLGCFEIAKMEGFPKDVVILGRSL
Source text: Refinement of the Morrison approach by Copeland enables defining the Ki value for an inhibitor through the use of relative rates using a quadratic equation (eqn (1)).[46] This approach depends on knowing the initial free enzyme and inhibitor concentrations without the assumption that the free inhibitor concentration is equal to the total inhibitor concentration.1 [drawing 1]
Further, Ki values can be accurately determined over a wide range of enzyme concentrations using this method,[47] which enabled us to use hOGA concentrations that permit accurate initial rate determinations. […]
(§1) Biological evaluation: Gene expression and protein purification. hOGA was expressed and purified according to the previously described procedure by Macauley et al.[5] hOGA was dialyzed twice against PBS buffer after purification and its concentration determined using the Nanodrop2000. Human β-hexosaminidase was obtained from Micheal Tropak at the Hospital for Sick Children in Toronto, without further purification.
(§2) Kinetic analysis of hOGA. […]
(§3) in PBS pH 7.4 buffer (0.03% BSA) in triplicate at 37°C for 20 minutes. A continuous assay procedure was performed in which the reactions were initiated by the addition of 4-MUGlcNAc substrate (50 µL or 100 µL via a multi-channel […]
(§4) The excitation and emission were 350
(§5) The amount of fluorogenic substrate liberated was quantitatively assessed by using a standard curve for 4-methylumbelliferone under identical buffer conditions. A total of 6-8 inhibitor concentrations were tested, […]
(§6) The hOGA concentrations in the assays ranged from 0.8 nM to 20 nM, depending on whether the Ki being determined was through classic Michaelis-Menten methods or the Morrison Ki fit. For full Ki […]
For the Morrison Ki analyses, only one substrate concentration was used (at the Km) since the method of inhibition was already known from analysis using the Line-weaver Burke plots.
Kinetic analysis of substrates 18a-e were performed in triplicate using pH 7.4 PBS buffer (0.03% BSA) containing 2.5% DMF, with varying enzyme concentrations. […]

[1] = biological target: T2, human hexosaminidase B (hHexB) (Homo sapiens, UniProt P07686); test: Inhibition of human hexosaminidase B (4-MUGlcNAc substrate); type: biochemical; conditions: for Ki: pH 4.25, 37°C; for (hHexB/hOGA) selectivity ratio: Ki hHexB / Ki hOGA, favored selectivity for hOGA
T2 construct: Micheal Tropak, Hospital for Sick Children, Toronto (gift, not a vendor)
T2 sequence (P07686 122-556): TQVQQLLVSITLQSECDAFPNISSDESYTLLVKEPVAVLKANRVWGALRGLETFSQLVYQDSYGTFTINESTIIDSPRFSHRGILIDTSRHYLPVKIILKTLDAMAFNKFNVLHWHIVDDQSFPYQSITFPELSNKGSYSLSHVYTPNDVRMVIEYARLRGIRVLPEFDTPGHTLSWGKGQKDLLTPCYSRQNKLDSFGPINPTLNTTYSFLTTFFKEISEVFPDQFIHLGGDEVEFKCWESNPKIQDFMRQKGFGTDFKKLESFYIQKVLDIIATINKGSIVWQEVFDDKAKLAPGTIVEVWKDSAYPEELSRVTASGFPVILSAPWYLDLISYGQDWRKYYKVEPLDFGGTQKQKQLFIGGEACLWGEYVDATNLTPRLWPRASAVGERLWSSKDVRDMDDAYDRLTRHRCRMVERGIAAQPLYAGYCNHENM
Source text: We next set out to assess the selectivity of this series of inhibitors for hOGA over the lysosomal β-hexosaminidases, which are comprised of combinations of α and β subunits that are products of the highly homologous HEXA and HEXB genes. […]
as §1, §2, §3, §4, §5, §6
For the Morrison Ki analyses, only one substrate concentration was used (at the Km) since the method of inhibition was already known from analysis using the Line-weaver Burke plots. […]
Kinetic analysis of β-hexosaminidase. All assays were carried out in 96 well plates (Thermoscientific, FloroNunc, lot […]
reactions were triggered by addition of substrate (20 µL or 15 µL) in a total volume of 45 or 40 µL. Reactions were […]
detect the fluorescent signal. […]

physchem = conditions: aqueous solution (H2O/D2O) with reference phenol
Procedure: (§7) In this way, a non-linear plot of the difference between NMR resonance frequencies for a compound of interest and those for a standard, such as 3-nitrophenol, can be used to determine the ratio (R) of the acid dissociation constants between these two materials.
(§8) pK determination using 13C NMR. All titrations were carried out on the Bruker AVANCE II 600 MHz NMR
(§9) spectrometer. The samples prepared for each titration contained 5 µL of 1,4-dioxane as an internal standard, an equal mol
(§10) amount of inhibitor and 3-nitrophenol or 3.4-dinitrophenol (depending on the availability of each compound) in 500 µL of
(§11) Each sample was made basic with 25-70 µL of 2M NaOH, and prior to
(§12) titration, it was ensured that there was no change in chemical shift with further addition of base in 5 µL increments, in
(§13) order to accurately establish the δd for each compound. The basic sample was then titrated with 10 µL of 0.5 M (15f-15h,
(§14) titration was reached. The point where the chemical shift stopped changing was the recorded δp for each compound. The
(§15) relative pKa (∆pKa) was then determined by non-linear fitting of data to Equation S1, which provides the value of R (R =
(§16) K x/K r) and describes the relationship between the difference (∆) in chemical shifts (δ) between each compound of
(§17) unknown pKa (x) and the reference compound with known pKa (r). δp and δd represent the chemical shifts of the protonated
(§18) and de-protonated species of each compound, where ∆ expresses the difference between the de-protonated species (δ x –
(§19) δd ), ∆ represents the difference between the deprotonated and protonated species of x (δd – δp ), and ∆ for that of the
(§20) reference compound (∆r = δ r – δ r). The fractional protonation of the reference compound is represented by n and is equal
We observed the 2′-carbon of the
(§21) aminothiazoline system and the C-1 carbon of 3-nitrophenol since these are most proximal to the ionizable center. Fitting
(§22) of the resulting data to Equation S1 (Figure 5 (ThiamEt-G), Supplemental Figure S7) enabled us to obtain values of R for
(§23) each compound and, by comparison to the reference compound, absolute pKa values (Table 1). The observed pKa values

[2] = pKa determination using 13C NMR titration
Procedure: as §7, §8, §9, §10, §11, §12, §13, §14, §15, §16, §17, §18, §19, §20
We observed the 2′-carbon of the
as §21, §22, §23

hOGA = biological target: T3, hOGA (Homo sapiens, UniProt O60502); conditions: cited from earlier work
T3 construct: made in house
T3 sequence (O60502 1-916): T1 sequence (O60502 1-916)

[3] = biological target: human lysosomal β-hexosaminidase (HEX); conditions: cited from earlier work
[4] = reference compound with known pKa; cited from earlier work
[5] = Michaelis–Menten inhibition analysis, 4-MUGlcNAc, PBS pH 7.4, 37°C, read-out: hOGA Ki
[6] = Dixon plot analysis (approximate Ki)
[7] = 3-nitrophenol as reference compound
[8] = 3,4-dinitrophenol as reference compound
[9] = Morrison Ki fit, 4-MUGlcNAc, PBS pH 7.4, 37°C, read-out: hOGA Ki

- Ki (human OGA (hOGA); [5]): 0.06 ± 0.01 µM
- Ki [1, 6]: 150 ± 50 µM
- (hHexB/hOGA) selectivity ratio [1]: 2500
- pKa (physchem): 6.18
- R (Kax/Kar) [2, 7]: 0.0058 ± 0.0002
- Fraction protonated at pH 7.4 [2]: 0.06
Structure (SMILES): OC[C@H]1O[C@@H]2SC(NCC(F)F)=N[C@@H]2[C@@H](O)[C@@H]1O [15g]

- Ki [1, 6]: 13 ± 3.8 µM
Structure (SMILES): CN(C)C1=N[C@@H]2[C@@H](O)[C@H](O)[C@@H](CO)O[C@@H]2S1 [15b]

- Ki (human OGA (hOGA); [5]): 1 ± 0.2 µM
- Ki [1, 6]: 4200 ± 1530 µM
- (hHexB/hOGA) selectivity ratio [1]: 4200
- pKa (physchem): 5.33
- R (Kax/Kar) [2, 8]: 1.213 ± 0.049
- Fraction protonated at pH 7.4 [2]: 0.01
Structure (SMILES): OC[C@H]1O[C@@H]2SC(NCC(F)(F)F)=N[C@@H]2[C@@H](O)[C@@H]1O [15h]

Structure (SMILES): CC(C)C(=O)N[C@H]1c2nc(CCc3ccccc3)cn2[C@H](CO)[C@@H](O)[C@@H]1O [GlcNAcstatin C]
- Ki (hOGA): 0.0032 µM
- Ki(HEX)/Ki(hOGA) [3]: 190

Structure (SMILES): C=CC=CC(=O)N[C@H]1c2nc(CCc3ccccc3)cn2[C@H](CO)[C@@H](O)[C@@H]1O [GlcNAcstatin G]
- Ki (hOGA): 0.0041 µM
- Ki(HEX)/Ki(hOGA) [3]: 900 000

Structure (SMILES): CC(=O)N[C@H]1CN2CC[C@H](O)[C@@H]2[C@@H](O)[C@@H]1O [6-Ac-Cas, 6-acetamido-6-deoxy-castanospermine]
- selectivity for hOGA over lysosomal β-hexosaminidases ([3]; in words): non-selective

- Ki (human OGA (hOGA); [9]): 0.002 ± 0.0002 µM
- Ki [1, 6]: 3700 ± 670 µM
- (hHexB/hOGA) selectivity ratio [1]: 1 850 000
Structure (SMILES): CCCNC1=N[C@@H]2[C@@H](O)[C@H](O)[C@@H](CO)O[C@@H]2S1 [15d]

Structure (SMILES): CCNC1=N[C@@H]2[C@@H](O)[C@H](O)[C@@H](CO)O[C@@H]2S1 [15c, 1,2-dideoxy-2′-ethylamino-α-D-glucopyranoso-[2,1-d]-Δ2′-thiazoline]
- Ki ([3]; read-out: hHexB Ki): 740 ± 60 µM
- pKa (physchem): 7.68
- R (Kax/Kar) [2, 7]: 0.1823 ± 0.0042
- Fraction protonated at pH 7.4 [2]: 0.66

Structure (SMILES): CCCCC(=O)N[C@H]1c2nc(CCc3ccccc3)cn2[C@H](CO)[C@@H](O)[C@@H]1O [GlcNAcstatin H]
- Ki(HEX)/Ki(hOGA) [3]: 35 000

- mode of inhibition of hOGA (human OGA (hOGA); Lineweaver–Burk / Michaelis-Menten analysis): competitive inhibition
- Ki (human OGA (hOGA); Michaelis-Menten analysis, hOGA 0.8 nM (Figure S2A), read-out: hOGA Ki): 0.0023 ± 0.0003 µM
- Ki (human OGA (hOGA); [9]): 0.0032 ± 0.0004 µM
- Ki (human OGA (hOGA); Morrison approach, hOGA 10 nM, substrate 60 µM (Figure S2B), read-out: hOGA Ki): 0.0032 ± 0.0004 µM
- Ki (human OGA (hOGA); graphical determination, Km app against inhibitor concentration (Figure S2A inset), read-out: hOGA Ki): 0.0047 µM
- Ki [1, 6]: 2850 ± 570 µM
- (hHexB/hOGA) selectivity ratio [1]: 950 000
Structure (SMILES): C=CCNC1=N[C@@H]2[C@@H](O)[C@H](O)[C@@H](CO)O[C@@H]2S1 [11b]

Structure (SMILES): OC[C@H]1O[C@@H]2SC(NCCF)=N[C@@H]2[C@@H](O)[C@@H]1O [15f]
- Ki (human OGA (hOGA)): 0.015 ± 0.005 µM
- Ki [1, 6]: 180 ± 44 µM
- (hHexB/hOGA) selectivity ratio [1]: 12 000
- pKa (physchem): 6.92
- R (Kax/Kar) [2, 7]: 0.0316 ± 0.0063
- Fraction protonated at pH 7.4 [2]: 0.25

Structure (SMILES): O=[N+]([O-])c1cccc(O)c1 [3-nitrophenol]
- pKa [4]: 8.42

- pKa (physchem): 4.65
- R (Kax/Kar) [2, 8]: 5.47 ± 3.28
Structure (SMILES): CCCC1=N[C@@H]2[C@@H](O)[C@H](O)[C@@H](CO)O[C@@H]2S1 [NButGT, reference compound]
- Ki(HEX)/Ki(hOGA) ([3]; selectivity for hOGA over lysosomal β-hexosaminidases): 1,500

- Ki (human OGA (hOGA); [5]): 0.35 ± 0.09 µM
- Ki [1, 6]: 4800 ± 763 µM
- (hHexB/hOGA) selectivity ratio [1]: 13 700
Structure (SMILES): CCCCNC1=N[C@@H]2[C@@H](O)[C@H](O)[C@@H](CO)O[C@@H]2S1 [15e]

- Ki (human OGA (hOGA); [9]): 0.0047 ± 0.0003 µM
- (hHexB/hOGA) selectivity ratio [1]: 1100
- Ki ([1]; Michaelis–Menten inhibition analysis (full Ki)): 5 ± 0.6 µM
Structure (SMILES): NC1=N[C@@H]2[C@@H](O)[C@H](O)[C@@H](CO)O[C@@H]2S1 [11a]
